Source: ChEMBL document CHEMBL1152057, “A note of caution in the use of receptor binding assays to screen marine organisms: the action of halistanol trisulphate on adenosine receptors” (Bioorg Med Chem Lett, 1992)

Experiments:
Adenosine receptor A1 [1] = target: T1, Adenosine receptor A1 (Rattus norvegicus, UniProt P25099); experiment: Agonistic activity against adenosine A1 receptor; assay type: functional
T1 sequence (P25099 whole entry): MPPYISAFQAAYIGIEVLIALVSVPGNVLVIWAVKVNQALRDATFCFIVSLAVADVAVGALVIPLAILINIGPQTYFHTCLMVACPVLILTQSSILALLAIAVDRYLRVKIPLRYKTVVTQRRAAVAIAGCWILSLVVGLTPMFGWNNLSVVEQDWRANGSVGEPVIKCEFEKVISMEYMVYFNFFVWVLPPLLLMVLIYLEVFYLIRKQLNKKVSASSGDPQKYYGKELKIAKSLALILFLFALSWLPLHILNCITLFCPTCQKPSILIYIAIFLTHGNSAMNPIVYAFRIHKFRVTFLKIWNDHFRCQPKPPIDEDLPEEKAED

Adenosine receptor A1 [2] = target: T1, Adenosine receptor A1; experiment: Kd value for adenosine A1 receptor binding at 145 uM
Adenosine receptor A1 [3] = target: T1, Adenosine receptor A1; experiment: Kd value for adenosine A1 receptor binding at 14.5 uM
[4] = target: T2, Adenosine receptor A1 (Rattus norvegicus) (UniProt P25099); experiment: Bmax value for adenosine A1 receptor binding at 145 uM
T2 sequence (whole entry): T1 sequence (P25099 whole entry)

[5] = target: T2, Adenosine receptor A1 (Rattus norvegicus); experiment: Bmax value for adenosine A1 receptor binding at 14.5 uM

Row | Structure (SMILES) | IC50 (Adenosine receptor A1 [1]) | Kd (Adenosine receptor A1 [2]) | Kd (Adenosine receptor A1 [3]) | Bmax [4] | Bmax [5]
1 | COc1cc(-c2oc3c(OC)cc(CCCO)cc3c2C=O)ccc1O | 17 nM |  |  |  | 
2 | CC(CCC(C)C(C)(C)C)C1CC[C@H]2[C@@H]3C[C@H](OS(=O)(=O)O)C4C[C@H](OS(=O)(=O)O)[C@@H](OS(=O)(=O)O)CC4(C)[C@H]3CCC12C (stereo partly specified) | 120000 nM | 10.6 nM | 1.39 nM | 319 fmol/mg | 346 fmol/mg
